Assay results: US11998595B2, “Telomerase polypeptide vaccine for treating cancer” (Ultimovacs AS, priority 2010, dated 2024)

What was measured:
Assay type in all cases: cell-based, human
[1] = system: CD8+ T cells (patient PBMCs); experiment: Pentamer staining of hTERT-specific CD8+ T cells by flow cytometry; details: for peptide-specific CD8+ T lymphocytes detected by pentamer: HLA-B7+ lung cancer patient in complete remission after GV1001 vaccination, up to six years (FIG. 6)
T cells (patient PBMCs) = experiment: T-cell proliferation assay (3H-thymidine) of patient PBMC/T cells with hTERT peptides or transfected DC; details: for response of clinical non-responders: GV1001-vaccinated
Method: FIG. 1 is a bar graph summarising hTERT T-cell responses detected in pancreas cancer patient vaccinated with DC transfected with hTERT mRNA. In samples from various time points throughout a vaccination schedule, T-cell responses against 24 overlapping hTERT 15-mer peptides were detected. Proliferation in response to peptide-loaded PBMC was measured by ^3H-thymidine incorporation. A stimulation index of >2 is considered an immune response.
Peripheral blood mononuclear cells (PBMCs) were obtained prior to the four standard vaccinations, after 5 weeks and after 12 weeks. PBMCs were also obtained before each monthly booster vaccination. The PBMCs were isolated and frozen as previously described (Kyte et al, 2005). Thawed PBMCs were stimulated once in vitro with tDCs (not with mockDCs) and cultured and then tested in T cell proliferation assays (^3H Thymidine) as previously described (Kyte et al 2006). The T cells were tested in triplicates. Irradiated tDCs and mock-transfected DC controls (mockDCs) were used or PBMC with or without hTERT peptide as APCs. Negative controls with T cells only were included.
PBMCs from various time points were stimulated with an overlapping hTERT 15-mer peptide library or a 30-mer hTERT peptide, all from ProImmune and then tested in proliferation assays as above using irradiated PBMCs as APCs as described in (Bernhardt et al 2006).
T-cell responses to a hTERT peptide library (including the polypeptides from Table 1) were determined for T-cells from 5 patients in addition to the patients reported in Examples 1 and 2. The methods were the same as previously described in Example 1 or in Bernhardt et al 2006. In brief, PBMCs from various time points during vaccination were stimulated with the overlapping hTERT peptide library prior to testing for specific T-cell responses in proliferation assays.
The proliferative T-cell responses of each patient to a series of peptides were then determined as explained in Example 1. The results are tabulated in Table 5 and are shown graphically in FIG. 14 in which the peptide designations are referenced in Table 6 (the results for peptides 726 and GV1001 are shown only for comparison).
Four patients who were clinical non-responders following a lung cancer diagnosis and a GV1001 (SEQ ID NO. 10) peptide vaccination were studied. These patients were all stage IV lung cancer patients vaccinated with GV1001. […] The proliferative T-cell responses of each patient to a series of peptides were determined in the same manner as in Example 1, at one time point. The peak response of each patient during the study period to peptide GV1001 is also shown which confirms that each patient responded immunologically to GV1001 vaccination.
Six patients who were clinical non-responders following a melanoma cancer diagnosis and a GV1001 peptide (SEQ ID NO. 10) vaccination were studied. These patients were all stage IV melanoma patients and included in the same GV1001 vaccination trial as melanoma patients P7 and P8 who were long term survivors (see Example 6). […] Five of the patients also experienced progressive disease and one patient, designated Melanoma P3, experienced some stabilization of the disease but still had short survival. The proliferative T-cell responses of each patient to a series of peptides were determined in the same manner as in Example 1, at one time point. The peak response of each patient during the study period to peptide GV1001 is also shown which confirms that each patient responded immunologically to GV1001 vaccination.

[2] = system: T cells stimulated with peptide-loaded autologous EBV-LCL; experiment: Intracellular cytokine staining of peptide-stimulated T cells
CD4+ T-cell clones = experiment: Peptide-specific T-cell clones from patients (HLA class II allele, peptide titration)
Excerpt: A value above 2 is considered as a positive response.
T-cell clones specific for all of the peptides of 15- or 30-amino acids shown in Table 1 have also been obtained from patients. […] This is important in order to be able to induce strong immune response in vivo where peptide concentrations are lower.
In addition, the 15- and 30-mer peptides listed in Table 1 show reactivity in nearly all patients tested, which means they are promiscuous with respect to the HLA class II alleles on which they are presented and that they are applicable to nearly the whole population without any need for HLA-screening (see Table 2).

[3] = GV1001 vaccinated lung cancer patient
[4] = four stage IV lung cancer patients
[5] = patient Colon ca P1, GV1001-vaccinated, clinical responder
[6] = patient Lung ca P1, GV1001-vaccinated, clinical non-responder, one time point
[7] = patient Lung ca P2, GV1001-vaccinated, clinical non-responder, one time point
[8] = patient Lung ca P3, GV1001-vaccinated, clinical non-responder, one time point
[9] = patient Lung ca P4, GV1001-vaccinated, clinical non-responder, one time point
[10] = patient Lung ca P5, GV1001-vaccinated, clinical responder
[11] = patient Lung ca P6, DC/hTERT mRNA-vaccinated, clinical responder, high background
[12] = patient Melanoma P1, GV1001-vaccinated, clinical non-responder, one time point
[13] = patient Melanoma P2, GV1001-vaccinated, clinical non-responder, one time point
[14] = patient Melanoma P3, GV1001-vaccinated, clinical non-responder, one time point
[15] = patient Melanoma P4, GV1001-vaccinated, clinical non-responder, one time point
[16] = patient Melanoma P5, GV1001-vaccinated, clinical non-responder, one time point
[17] = patient Melanoma P6, GV1001-vaccinated, clinical non-responder, one time point
[18] = patient Melanoma P7, GV1001-vaccinated, clinical responder
[19] = patient Melanoma P8, GV1001-vaccinated, clinical responder
[20] = patient Melanoma P9, non-vaccinated, spontaneous response
[21] = patient Pancreas ca P1, DC/hTERT mRNA-vaccinated, clinical responder, high background

“RPALLTSRL (listed as Homo sapiens) [SEQ ID NO. 5]” was tested, and the “peptide-specific CD8+ T lymphocytes detected by pentamer” value [1] was “stable CD8+ T cell population”.

“RPGLLGASVL (listed as Homo sapiens) [SEQ ID NO. 25]” was tested, and the “peptide-specific CD8+ T lymphocytes detected by pentamer” value [1] was “second minor CTL population”.

In the case of “ALFSVLNYERARRPGLLGASVLGLDDIHRA [SEQ ID NO. 1]”, the “patients with CTL responses shown by pentamer analysis” value ([1]; patients of Examples 1 to 8) is reported as “Several”, the T-cell response (T cells (patient PBMCs); [3]) is reported as “very strong responses” and the “reactivity in cancer patients tested” value (T cells (patient PBMCs); cancer patients, mostly vaccinated) is reported as “reactivity in nearly all the cancer patients tested”. For the same sequence, the “response of clinical non-responders” value (T cells (patient PBMCs); [4]) was “very low or no response”, the “T-cell response compared with the vaccine peptide GV1001” value (T cells (patient PBMCs); one patient vaccinated with GV1001, certain time points (FIG. 3)) was “even stronger than to the vaccine peptide itself” and the “proliferative T-cell response (detected or not)” value (T cells (patient PBMCs); pancreas cancer patient vaccinated with DC/hTERT mRNA) was “Proliferative T-cell responses were detected”. For the same sequence, the “proliferative T-cell response (SI)” value (T cells (patient PBMCs); [5]) was 27.2, the “proliferative T-cell response (SI)” value (T cells (patient PBMCs); [6]) was 1 and the “proliferative T-cell response (SI)” value (T cells (patient PBMCs); [7]) was 1.1. For the same sequence, the “proliferative T-cell response (SI)” value (T cells (patient PBMCs); [8]) was 0.9, the “proliferative T-cell response (SI)” value (T cells (patient PBMCs); [9]) was 1.5 and the “proliferative T-cell response (SI)” value (T cells (patient PBMCs); [10]) was 44.5. The “proliferative T-cell response (SI)” value (T cells (patient PBMCs); [11]) was 2.5, the “proliferative T-cell response (SI)” value (T cells (patient PBMCs); [12]) was 1.6 and the “proliferative T-cell response (SI)” value (T cells (patient PBMCs); [13]) was 5.3. For the same sequence, the “proliferative T-cell response (SI)” value (T cells (patient PBMCs); [14]) was 0.3, the “proliferative T-cell response (SI)” value (T cells (patient PBMCs); [15]) was 1 and the “proliferative T-cell response (SI)” value (T cells (patient PBMCs); [16]) was 1.9. For the same sequence, the “proliferative T-cell response (SI)” value (T cells (patient PBMCs); [17]) was 1.8, the “proliferative T-cell response (SI)” value (T cells (patient PBMCs); [18]) was 44.5 and the “proliferative T-cell response (SI)” value (T cells (patient PBMCs); [19]) was 5.7. The “proliferative T-cell response (SI)” value (T cells (patient PBMCs); [20]) was 6.9, the “proliferative T-cell response (SI)” value (T cells (patient PBMCs); [21]) was 17.1 and the “immunological responses in clinical responders” value (T cells (patient PBMCs); patients responding / 7 clinical responders) was 7/7. For the same sequence, the “immunological responses in clinical non-responders” value (T cells (patient PBMCs); patients responding / 10 clinical non-responders) was 1/10, the “response of clinical non-responders” value (T cells (patient PBMCs); six stage IV melanoma patients) was “very low or no response” and the “CD8+ T cell population after stimulation with peptide-loaded versus non-peptide loaded targets” value ([2]; pancreas cancer patient (data not shown)) was “no difference in the CD8+ T cell population”. For the same sequence, the “CD4+ T cells secreting IFN-γ, IL-4 and TNF-α” value ([2]; pancreas cancer patient, one round of in vitro stimulation, autologous EBV-transformed B-cells loaded with same peptide) was “small population of multifunctional CD4+ T cells”, the “T-cell clones derived from the culture with the peptide that were specific” value (CD4+ T-cell clones; [3]) was 75% and the Specific clones (CD4+ T-cell clones; HLA class II allele DR*07, specificity printed as 'Part of 660-689', 1 patient, colon cancer, Schroers et al, 2003) was 3. The Specific clones (CD4+ T-cell clones; HLA class II allele DR*14, 2 patients, colon cancer, lung cancer) was 6 clones.

With “RLTSRVKALFSVLNY (listed as Homo sapiens) [SEQ ID NO. 8]” the “response of clinical non-responders” value (T cells (patient PBMCs); [4]) was “very low or no response”, the “proliferative T-cell response (SI)” value (T cells (patient PBMCs); [5]) was 2.6 and the “proliferative T-cell response (SI)” value (T cells (patient PBMCs); [6]) was 1.2. The “proliferative T-cell response (SI)” value (T cells (patient PBMCs); [7]) was 0.9, the “proliferative T-cell response (SI)” value (T cells (patient PBMCs); [8]) was 1.1 and the “proliferative T-cell response (SI)” value (T cells (patient PBMCs); [9]) was 1.1. For the same sequence, the “proliferative T-cell response (SI)” value (T cells (patient PBMCs); [10]) was 0.8, the “proliferative T-cell response (SI)” value (T cells (patient PBMCs); [11]) was 2.1 and the “proliferative T-cell response (SI)” value (T cells (patient PBMCs); [12]) was 0.9. The “proliferative T-cell response (SI)” value (T cells (patient PBMCs); [13]) was 0.8, the “proliferative T-cell response (SI)” value (T cells (patient PBMCs); [14]) was 0.6 and the “proliferative T-cell response (SI)” value (T cells (patient PBMCs); [15]) was 1.1. The “proliferative T-cell response (SI)” value (T cells (patient PBMCs); [16]) was 7.1, the “proliferative T-cell response (SI)” value (T cells (patient PBMCs); [17]) was 0.8 and the “proliferative T-cell response (SI)” value (T cells (patient PBMCs); [18]) was 4.8. For the same sequence, the “proliferative T-cell response (SI)” value (T cells (patient PBMCs); [19]) was 6.3, the “proliferative T-cell response (SI)” value (T cells (patient PBMCs); [20]) was 4.2 and the “proliferative T-cell response (SI)” value (T cells (patient PBMCs); [21]) was 1.3. For the same sequence, the “response of clinical non-responders” value (T cells (patient PBMCs); six stage IV melanoma patients) was “very low or no response” and the Specific clones (CD4+ T-cell clones; HLA class II allele DR*04, 3 patients, malignant melanoma) was 3.
